For orientation: inhibition means the share of the control response that was lost under treatment.

Read-outs that look alike come from different tables or passages of the source.

Here are results for two molecules from US12582687B2, “Composition based on Crocus sativus and Cannabis sativa” (priority 2021, dated 2026).

The target in experiment [1] is acetylcholinesterase (AchE) (Homo sapiens, UniProt P22303). Nature of the experiment: Acetylcholinesterase activity, in vitro colorimetric Ellman method. The format is biochemical. The note with it: AchE 0.22 U/ml, ATCl 1 mM, 20 min. (Ellman's reagent forms a yellow product with free thiols.)
Excerpt: The aim of this assay is to compare acetylcholinesterase (AchE) activity in the presence of the composition according to the invention, with a safranal/cannabidiol (CBD) ratio of 0.03, with acetylcholinesterase activity in the presence of safranal or CBD alone.
AchE activity was monitored and measured in vitro by colorimetric reaction using the Ellman method. Acetylthiocholine (ATCl) is degraded to thiocholine and acetic acid by AChE. The thiocholine then reacts with the dithiobisnitrobenzoic ion (DTNB) and the resulting ion (TNB) gives a yellow coloration. In a 96-well plate, the following amounts were deposited in each well: 55 μl buffer (Tris-HCl 50 mM), 75 μl DTNB (5 mM), 25 μl AchE (0.22 U/ml), 25 μl test sample (buffer or safranal (1.2 μg/ml), or CBD (40 μg/ml), or safranal (1.2 μg/ml)+CBD (40 μg/ml).
At the last moment, 25 μL of ATCl (1 mM) was added to initiate the reaction. The absorbance was then monitored at 405 nM for 20 min. For each well, the absorbance values over time (Ax) are normalized relative to the first absorbance measurement (AT0) according to the following formula: Normalized absorbance (An)=Ax−AT0. The percentage of AchE inhibition was determined by comparing the slopes of the curves (in the linear part) against the control according to the following equation [Math 1]. […]
Experiment [2] has as its system anxiety symptoms in healthy adults under stress. The note with it: CBD alone without THC, cited from earlier work.

Sequence of acetylcholinesterase (AchE) (P22303 32-614, species assumed): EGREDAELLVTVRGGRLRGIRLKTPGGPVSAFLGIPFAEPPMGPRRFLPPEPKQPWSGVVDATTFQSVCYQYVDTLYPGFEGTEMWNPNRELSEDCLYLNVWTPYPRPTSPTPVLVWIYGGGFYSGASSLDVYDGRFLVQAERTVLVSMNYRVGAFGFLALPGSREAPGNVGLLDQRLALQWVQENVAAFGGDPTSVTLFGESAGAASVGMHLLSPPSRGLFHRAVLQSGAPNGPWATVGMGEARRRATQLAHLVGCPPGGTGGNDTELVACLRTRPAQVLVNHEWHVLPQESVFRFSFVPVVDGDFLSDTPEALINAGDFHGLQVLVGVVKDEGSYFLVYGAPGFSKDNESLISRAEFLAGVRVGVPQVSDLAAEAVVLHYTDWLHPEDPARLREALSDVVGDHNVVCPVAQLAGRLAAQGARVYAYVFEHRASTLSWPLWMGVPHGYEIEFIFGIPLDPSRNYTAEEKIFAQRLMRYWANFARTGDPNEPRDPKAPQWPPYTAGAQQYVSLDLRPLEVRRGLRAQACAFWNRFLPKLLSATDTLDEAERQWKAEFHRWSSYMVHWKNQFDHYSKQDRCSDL

For the molecule `CC1=C(C=O)C(C)(C)CC=C1` [safranal], the “AchE activity compared with the control” value in experiment [1] (safranal 1.2 μg/ml test sample) was “unchanged”.

With `C=C(C)[C@@H]1CCC(C)=C[C@H]1c1c(O)cc(CCCCC)cc1O` [CBD, 2-[(1R,6R)-6-isopropenyl-3-methylcyclohex-2-en-1-yl]-5-pentylbenzene-1,3-diol], the inhibition at 40 µg/mL in experiment [1] (CBD 40 μg/ml test sample, read-out: decrease in AchE activity (percentage of AchE inhibition relative to control)) turned out to be 69.8%. Moreover, the “effect on anxiety symptoms” value is on record as “reducing anxiety symptoms” in experiment [2] (dose 300 mg), “no effect” in experiment [2] (higher dose 900 mg) and “no effect” in experiment [2] (lower dose 100 mg).
